This is an account of results in patent US6830310B2, “Detectable markers in cationic polymeric fixers” (Hewlett-Packard Development Company, L.P., priority 2002, dated 2004).

Series [1] in a line: Color of the fixer solution in the presence of the compound. The series is classed as physicochemical. An excerpt: 3) “Color” refers to the color of the fixer solution in the presence of the compound.
Series [2] is described as follows: Solubility of indicator in polymonoguanadine fixer. The settings on record: for Solubility @ 0.1%: 0.1% in 4 wt % polymonoguanadine fixer; for Solubility @ 0.01 %: 0.01% in 4 wt % polymonoguanadine fixer.
Description: Fixer solutions were made by mixing a water based fixer containing a polymonoguanadine cationic polymer with an IR or UV absorber indicator.
2) The solubility is based on the solubility of the compound in a 4 wt % polymonoguanadine fixer.

Turning to `CN(C)c1ccc(C=Cc2ccccn2)cc1` [2-[4-(Dimethylamino)styryl]pyridine], in series [1], the Color entry is “Orange”. For the same molecule, the “Solubility @ 0.1%” value in series [2] is “No”.

Consider `CCN(CC)CCc1c(C)c2ccc(O)cc2oc1=O.Cl` [3-[2-(diethylamino)ethyl]-7-hydroxy-4-methylcoumarin hydrochloride], for which, in series [2], the “Solubility @ 0.01 %” value is listed as “Yes”.

As for `Nc1ccc(C(=O)O)cc1` [4-Aminobenzoic acid (PABA), 4-Aminobenzoic acid], the Color result in series [1] is “Clear”. In series [2], the “Solubility @ 0.01 %” value is recorded as “Yes” and the “Solubility @ 0.1%” value is listed as “Yes”.

`Cc1cc(=O)oc2cc(O)c(O)cc12` [4-Methylesculetin]: the Color entry in series [1] is listed as “Clear”. In addition, in series [2], the “Solubility @ 0.01 %” value is reported as “No” and the “Solubility @ 0.1%” value is reported as “No”.

For the molecule `CCN(CC)c1ccc2c(C)cc(=O)oc2c1` [7-Diethylamino-4-methyl coumarin, 7-diethylamino-4-methyl coumarin], in series [2], the “Solubility @ 0.01 %” value is “Yes” and the “Solubility @ 0.1%” value is recorded as “Yes”.

For the molecule `Cc1cc(O)nc2cc(N)ccc12` [Carbostyril 124], the Color entry in series [1] is reported as “Clear”. Further, in series [2], the “Solubility @ 0.01 %” value is “Yes” and the “Solubility @ 0.1%” value is reported as “No”.

`CCN(CC)c1ccc2cc(-c3nc4ccccc4[nH]3)c(=O)oc2c1` [Coumarin 7]: the Color entry in series [1] is reported as “Yellow”. In series [2], the “Solubility @ 0.01 %” value was “No” and the “Solubility @ 0.1%” value is “No”.

For the molecule `CN(C)c1ccc2c(C(F)(F)F)cc(=O)oc2c1` [Coumarin 152], in series [2], the “Solubility @ 0.01 %” value is listed as “No” and the “Solubility @ 0.1%” value is “No”.

As for `Cc1ccc2nc(-c3ccc(N=NNc4ccc(-c5nc6ccc(C)c(S(=O)(=O)[O-])c6s5)cc4)cc3)sc2c1S(=O)(=O)[O-].[Na+].[Na+]` [Direct Yellow 9], the Color entry in series [1] was “Yellow”. Besides, the “Solubility @ 0.1%” value in series [2] is reported as “No”.

On to `O=S(=O)([O-])c1cc(Nc2nc(Nc3ccccc3)nc(N(CCO)CCO)n2)ccc1/C=C/c1ccc(Nc2nc(Nc3ccccc3)nc(N(CCO)CCO)n2)cc1S(=O)(=O)[O-].[Na+].[Na+]` [FluorescentBrightner28], for which the Color entry in series [1] was “Clear”.

Take `CCN1/C(=C/C=C2\CCC(/C=C/c3sc4ccc(Cl)cc4[n+]3CC)=C2N(c2ccccc2)c2ccccc2)Sc2ccc(Cl)cc21.[O-][Cl+3]([O-])([O-])[O-]` [IR140]: the Color result in series [1] was “Pale Blue”. In series [2], the “Solubility @ 0.01 %” value is “No” and the “Solubility @ 0.1%” value is given as “No”.

Consider `CC1(C)C(/C=C/C=C/C=C/C=C2\N(CCCCS(=O)(=O)O)c3ccc4ccccc4c3C2(C)C)=[N+](CCCCS(=O)(=O)[O-])c2ccc3ccccc3c21` [Indocyanine Green], for which the Color result in series [1] is “Green”. For the same molecule, in series [2], the “Solubility @ 0.01 %” value was “No” and the “Solubility @ 0.1%” value is reported as “No”.

For the molecule `Cc1cc2nc3[nH]c(=O)[nH]c(=O)c3nc2cc1C` [Lumichrome], the Color result in series [1] was “Clear”. Moreover, in series [2], the “Solubility @ 0.01 %” value is “No” and the “Solubility @ 0.1%” value is given as “No”.

As for `CCOc1ccc2c(ccc(/C=C/c3cccc([N+](=O)[O-])c3)[n+]2C)c1.COS(=O)(=O)[O-]` [Pinacryptol Yellow], in series [1], the Color result is recorded as “Yellow”. In addition, the “Solubility @ 0.1%” value in series [2] is “No”.

As to `C(=Cc1ccccc1)c1ccccc1` [Stilbene], in series [2] (fixer vehicle that is mostly water), the “Solubility in the fixer vehicle” value is recorded as “not soluble”.

As for `Cc1ccc2c(c1)sc(-c1ccc(N(C)C)cc1)[n+]2C.[Cl-]` [Thioflavin T], in series [1], the Color entry is listed as “Yellow”. Moreover, in series [2], the “Solubility @ 0.01 %” value is “Yes” and the “Solubility @ 0.1%” value is “No”.

As to `CCN=C1C=CC(=C(c2ccc(N(CC)CC)cc2)c2ccc(N(CC)CC)cc2)c2ccccc21.Cl` [Victoria Blue BO], the Color result in series [1] is on record as “Blue”. Moreover, the “Solubility @ 0.01 %” value in series [2] is “Yes”.

For `CN1/C(=C/C=C/C=C/C=C/C2=[N+](C)c3ccccc3C2(C)C)C(C)(C)c2ccccc21.[I-]` [tricarbocyanine, 1,1′,3,3,3′,3′-Hexamethylindotricarbocyanine iodide], the “Solubility in polymonoguanadine thermal inkjet fixer” value in series [2] (750 ppm) is “not soluble”. Also, the “Solubility (general statement)” value in series [2] (in water / fixer) is reported as “only limited solubility”.

As for Variamine Blue, the Color entry in series [1] was “Yellow”. Also, in series [2], the “Solubility @ 0.01 %” value is on record as “Yes” and the “Solubility @ 0.1%” value is given as “Yes”.
